In patent publication US11000033B2, “Ketone or oxime compound, and herbicide” (NISSAN CHEMICAL CORPORATION, priority 2014, dated 2021):

Experiments:
Format in all cases: in vivo
beet [1] = assay: Test Example 4: effect on crop by soil treatment (symbol f); details: application herbicide amount 320 g/ha
How it was run: (§1)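 Soil-treatment setup: crop and weed seeds were spot-sown into sterilized diluvial soil, then buried beneath approximately 1.5 cm of it, and the boxes were housed in a 25–30° C. greenhouse.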

wheat = assay: Test Example 5: effect on crop by foliage application, plastic box (symbol e); details: 320 g/ha, 3 weeks after application
How it was run: (§2)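 Soil: sterilized diluvial. Container: plastic box, 21 × 13 cm, 7 cm deep. Sowing: spot-like, ~1.5 cm cover. Growth: greenhouse, 25° C. to 30° C.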

Galium spurium = assay: Test Example 5: herbicidal effect by foliage application, plastic box (symbol Q); details: 320 g/ha, 3 weeks after application
How it was run: (§3)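 Herbicide, formulated as an emulsion and diluted in water, is sprayed onto the aerial parts of 14-day seedlings. These were grown at 25° C. to 30° C. in sterilized diluvial soil; effects are graded after 3 weeks.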

soybean [2] = assay: Test Example 5: effect on crop by foliage application, plastic box (symbol d); details: 320 g/ha, 3 weeks after application
How it was run: as §2

soybean [3] = assay: Test Example 4: effect on crop by soil treatment (symbol d); details: application herbicide amount 320 g/ha
How it was run: as §1

Abutilon theophrasti = assay: Test Example 5: herbicidal effect by foliage application, plastic box (symbol M); details: 320 g/ha, 3 weeks after application
How it was run: as §3

rice plant = assay: Test Example 5: effect on crop by foliage application, plastic box (symbol b); details: 320 g/ha, 3 weeks after application
How it was run: as §2

Stellaria media = assay: Test Example 4: herbicidal effect by soil treatment (symbol P); details: application herbicide amount 320 g/ha
How it was run: (§4)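 Seeds were sown in sterilized diluvial soil, covered with about 1.5 cm of soil, and the soil surface was sprayed with a water-diluted emulsion of the compound at a predetermined rate. Plants grew in a greenhouse at 25° C. to 30° C.; effects were scored visually 3 weeks after application.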

Veronica persica = assay: Test Example 4: herbicidal effect by soil treatment (symbol R); details: application herbicide amount 320 g/ha
How it was run: as §4

corn = assay: Test Example 4: effect on crop by soil treatment (symbol c); details: application herbicide amount 320 g/ha
How it was run: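 Plants are raised in a greenhouse (25° C. to 30° C.) from spot-sown seed, which sits under about 1.5 cm of sterilized diluvial soil in a box shared with weed species.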

beet [4] = assay: Test Example 5: effect on crop by foliage application, plastic box (symbol f); details: 320 g/ha, 3 weeks after application
How it was run: as §2

[5] = test system: Echinochloa oryzacola Vasing.; assay: Test Example 1: herbicidal activity, application before weed generation in submerged conditions (symbol A); details: application herbicide amount 320 g/ha
How it was run: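 Weed control was rated three weeks after treatment on a 0–5 scale, from 5% or lower up to 90% or more. Pre-emergence water-surface application of diluted emulsion at a predetermined rate was made on the day of sowing, in flooded (4 cm water) pots containing rice seedlings, kept at 25–30 °C under glass.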

transplanted rice plant = assay: Test Example 1: effect on crop, application before weed generation in submerged conditions (symbol a); details: application herbicide amount 320 g/ha
How it was run: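 Rice at 2.5 leaf stage transplanted into submerged soil (4 cm depth) sown with three weed species; herbicide applied before weed emergence.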

[6] = test system: Echinochloa crus-galli var. crus-galli; assay: Test Example 3: herbicidal effect by foliage application, Wagner pot (symbol H); details: application herbicide amount 320 g/ha
How it was run: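 Herbicidal activity was rated three weeks after a foliar spray of diluted emulsion concentrate, applied at a predetermined dose to plants grown for 14 days from seed in waterlogged alluvial soil within a 25–30 °C greenhouse.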

Alopecurus myosuroides = assay: Test Example 5: herbicidal effect by foliage application, plastic box (symbol J); details: 320 g/ha, 3 weeks after application
How it was run: as §3

SMILES | Effect on crop grade, f: beet (beet [1]) | e: wheat, effect on crop (criteria of Test Example 1) (wheat) | Q: Galium spurium, herbicidal effect (criteria of Test Example 1) (Galium spurium) | d: soybean, effect on crop (criteria of Test Example 1) (soybean [2]) | Effect on crop grade, d: soybean (soybean [3]) | M: Abutilon theophrasti, herbicidal effect (criteria of Test Example 1) (Abutilon theophrasti) | b: directly sowed rice plant, effect on crop (criteria of Test Example 1) (rice plant) | Herbicidal effect grade, P: Stellaria media (Stellaria media) | Herbicidal effect grade, R: Veronica persica (Veronica persica) | Effect on crop grade, c: corn (corn) | f: beet, effect on crop (criteria of Test Example 1) (beet [4]) | Herbicidal effect grade, A: Echinochloa oryzacola Vasing. [5] | Effect grade on crop, a: transplanted rice plant (transplanted rice plant) | J: Alopecurus myosuroides, herbicidal effect (criteria of Test Example 1) (Alopecurus myosuroides) | herbicidal effect on H (Echinochloa crus-galli var. crus-galli), grade 0-5 [6] | also measured
COc1cc(Br)cc(C)c1C1=C(O)CC(CC(C)=O)C1=O (stereo not drawn) [7-027, 2-(4-bromo-2-methoxy-6-methylphenyl)-3-hydroxy-5-(2-oxopropyl)cyclopent-2-enone] | 0 (Herbicidal ratio of 5% or lower (almost no effect)) | 0 (Herbicidal ratio of 5% or lower (almost no effect)) | 0 (Herbicidal ratio of 5% or lower (almost no effect)) | 0 (Herbicidal ratio of 5% or lower (almost no effect)) | 0 (Herbicidal ratio of 5% or lower (almost no effect)) | 0 (Herbicidal ratio of 5% or lower (almost no effect)) | 3 (Herbicidal ratio of 40% or higher and lower than 70%) | 0 (Herbicidal ratio of 5% or lower (almost no effect)) | 0 (Herbicidal ratio of 5% or lower (almost no effect)) | 3 (Herbicidal ratio of 40% or higher and lower than 70%) | 0 (Herbicidal ratio of 5% or lower (almost no effect)) | 4 (Herbicidal ratio of 70% or higher and lower than 90%) | 3 (Herbicidal ratio of 40% or higher and lower than 70%) | 1 (Herbicidal ratio of 5% or higher and lower than 20%) | – | H (Echinochloa crus-galli var. crus-galli) herbicidal effect grade ([6]; Table 24): 5 (Herbicidal ratio of 90% or more (almost completely withered))
CC(=O)CC1CC(O)=C(c2c(C)cc(-c3ccc(C(F)(F)F)cc3)cc2C)C1=O (stereo not drawn) [7-005] | 0 (Herbicidal ratio of 5% or lower (almost no effect)) | 0 (Herbicidal ratio of 5% or lower (almost no effect)) | 0 (Herbicidal ratio of 5% or lower (almost no effect)) | 0 (Herbicidal ratio of 5% or lower (almost no effect)) | 0 (Herbicidal ratio of 5% or lower (almost no effect)) | 0 (Herbicidal ratio of 5% or lower (almost no effect)) | 4 (Herbicidal ratio of 70% or higher and lower than 90%) | 0 (Herbicidal ratio of 5% or lower (almost no effect)) | 0 (Herbicidal ratio of 5% or lower (almost no effect)) | 0 (Herbicidal ratio of 5% or lower (almost no effect)) | 0 (Herbicidal ratio of 5% or lower (almost no effect)) | 3 (Herbicidal ratio of 40% or higher and lower than 70%) | 1 (Herbicidal ratio of 5% or higher and lower than 20%) | 2 (Herbicidal ratio of 20% or higher and lower than 40%) | 5 (Herbicidal ratio of 90% or more (almost completely withered)) | –
CON=C(C)CC1CC(O)=C(c2c(C)cc(-c3ccccc3)cc2OC)C1=O (stereo not drawn) [6-099] | 2 (Herbicidal ratio of 20% or higher and lower than 40%) | 5 (Herbicidal ratio of 90% or more (almost completely withered)) | 5 (Herbicidal ratio of 90% or more (almost completely withered)) | 4 (Herbicidal ratio of 70% or higher and lower than 90%) | 0 (Herbicidal ratio of 5% or lower (almost no effect)) | 3 (Herbicidal ratio of 40% or higher and lower than 70%) | 5 (Herbicidal ratio of 90% or more (almost completely withered)) | 4 (Herbicidal ratio of 70% or higher and lower than 90%) | 4 (Herbicidal ratio of 70% or higher and lower than 90%) | 5 (Herbicidal ratio of 90% or more (almost completely withered)) | 4 (Herbicidal ratio of 70% or higher and lower than 90%) | 5 (Herbicidal ratio of 90% or more (almost completely withered)) | 5 (Herbicidal ratio of 90% or more (almost completely withered)) | 5 (Herbicidal ratio of 90% or more (almost completely withered)) | 5 (Herbicidal ratio of 90% or more (almost completely withered)) | –
CON=C(C)CC1CC(O)=C(c2c(C)cc(-c3ccc(F)c(Cl)c3)cc2C)C1=O (stereo not drawn) [6-085] | 3 (Herbicidal ratio of 40% or higher and lower than 70%) | 5 (Herbicidal ratio of 90% or more (almost completely withered)) | 4 (Herbicidal ratio of 70% or higher and lower than 90%) | 5 (Herbicidal ratio of 90% or more (almost completely withered)) | 5 (Herbicidal ratio of 90% or more (almost completely withered)) | 4 (Herbicidal ratio of 70% or higher and lower than 90%) | 5 (Herbicidal ratio of 90% or more (almost completely withered)) | 5 (Herbicidal ratio of 90% or more (almost completely withered)) | 4 (Herbicidal ratio of 70% or higher and lower than 90%) | 1 (Herbicidal ratio of 5% or higher and lower than 20%) | 4 (Herbicidal ratio of 70% or higher and lower than 90%) | 5 (Herbicidal ratio of 90% or more (almost completely withered)) | 5 (Herbicidal ratio of 90% or more (almost completely withered)) | 5 (Herbicidal ratio of 90% or more (almost completely withered)) | 5 (Herbicidal ratio of 90% or more (almost completely withered)) | –
CON=C(C)CC1CC(O)=C(c2c(C)cc(-n3cccn3)cc2C)C1=O (stereo not drawn) [6-073] | – | 3 (Herbicidal ratio of 40% or higher and lower than 70%) | 3 (Herbicidal ratio of 40% or higher and lower than 70%) | 0 (Herbicidal ratio of 5% or lower (almost no effect)) | – | 0 (Herbicidal ratio of 5% or lower (almost no effect)) | 5 (Herbicidal ratio of 90% or more (almost completely withered)) | – | – | – | 0 (Herbicidal ratio of 5% or lower (almost no effect)) | 4 (Herbicidal ratio of 70% or higher and lower than 90%) | 5 (Herbicidal ratio of 90% or more (almost completely withered)) | 5 (Herbicidal ratio of 90% or more (almost completely withered)) | 5 (Herbicidal ratio of 90% or more (almost completely withered)) | f: beet, effect on crop grade (beet [1]): 0 (Herbicidal ratio of 5% or lower (almost no effect)); d: soybean, effect on crop grade (soybean [3]): 0 (Herbicidal ratio of 5% or lower (almost no effect)); P: Stellaria media, herbicidal effect grade (Stellaria media): 0 (Herbicidal ratio of 5% or lower (almost no effect)); R: Veronica persica, herbicidal effect grade (Veronica persica): 0 (Herbicidal ratio of 5% or lower (almost no effect)); c: corn, effect on crop grade (corn): 3 (Herbicidal ratio of 40% or higher and lower than 70%)
